The text below walks through data of patent publication US7097967B2, “Method of predicting drug-food interaction” (LG Life Sciences Ltd., priority 2002, dated 2006).

Structures can show the parent of a compound that is named as a salt. Where two headings read alike, the source gives them in different places.

Data set [1] can be described thus: Effect of composition of food on bioavailability of Drug A in dog. The class given is in vivo. As to conditions: dogs; for bioavailability: dog, plasma, po. On the procedure:
A solution in which 5 g of starch dispersed in 40 ml of water, 40 ml of egg albumin, and a solution in which 5 g of Gelucire® (44/14) dispersed in 40 ml of water, respectively, were fed to two dogs […] before administration of Drug A. These dogs (8–11 kg, Covance Research Product corporation, MI, U.S.A) were bred in a standard laboratory cage, adjusted for a temperature (22±3° C.) and humidity (50±20%), with feed and water available ad libitum. The dogs were fasted for 18–20 hours prior to this experiment. The test group for ascertaining the effect of foods was provided with foods 1 hour before administration of a drug, and the drug was administered after ingestion of foods. At a previously fixed time after administration, 500 μl of blood was gathered from the cephalic vein using the heparinized syringe, and the blood plasma was separated by a centrifuge, and then the plasma concentration of the drug was measured by HPLC analysis.
A Shiseido Capcell-Pak C18 reverse phase column was used for the drug-detection, employing a Shimadzu HPLC system (Class-LC10A system control software, CBM-10A communication bus module, two LC-10AD pumps, SIL-10AXL autoinjector with sample cooler, SPD-10AV ultraviolet detector). The mobile phase was acetonitrile : 0.1% trifluoroacetic acid /5 mM sodium dodecyl sulfate=47 : 53 and the flow rate was 1 ml/min. Data, obtained after oral administration, was expressed in a graph of drug concentration versus time, and applied to the non-compartment model using Win-Nonlin program (Scientific Consultion Corporation, NC, U.S.A.), whereby pharmacokinetic parameters such as a half-life (t1/2), maximum concentration (Cmax), time of the maximum concentration (Tmax), AUCinf, AUClast, and bioavailability (BA) were calculated. AUC was obtained by applying the trapezoidal rule-extrapolation method, and BA was calculated by using the formula (AUCPO×DoseIV)/(AUCIV×DosePO). The result of the experiment is disclosed in FIG. 1 and TABLE 2.

For data set [2], the target named is T1, Trypsin (Bos taurus, UniProt P00760).
T1 construct: gene PRSS1
T1 sequence (P00760 24-246): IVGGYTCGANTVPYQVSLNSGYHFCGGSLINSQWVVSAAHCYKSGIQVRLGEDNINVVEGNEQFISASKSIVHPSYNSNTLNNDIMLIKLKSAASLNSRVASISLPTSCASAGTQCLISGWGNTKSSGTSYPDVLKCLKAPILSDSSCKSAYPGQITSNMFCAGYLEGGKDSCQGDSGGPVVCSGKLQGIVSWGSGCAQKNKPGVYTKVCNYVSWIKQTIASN
Nature of the data set: Measurement of activities of Drug A and its prodrugs to trypsin (chromogenic substrate, Ki). Particulars: tris buffer pH 7.8, N-benzoyl-Val-Gly-Arg-p-nitroanilide substrate, room temperature; read-out: Trypsin inhibition constant. In kind it is biochemical. Here is the method:
140 μl of 0.1 M tris buffer solution (pH 7.8) containing 150 mM NaCl and 0.1% PEG 8000 (PolyEthylene Glycol, Molecular Weight: about 8,000) was pipetted into a microplate. A substrate solution was prepared by dissolving N-benzoyl-Val-Gly-Arg-p-nitroanilide hydro-chloride in DMSO to a concentration of 10 mM, and then diluting the resultant with the above buffer solution to a concentration of 0.5 mM. 20 μl of 0.5 mM substrate solution obtained thus was added to the microplate. An inhibitor solution was prepared by dissolving the inhibitor compound according to the present invention in DMSO to make the concentration of 10 mM, and then diluting the resultant with the above buffer solution to make the concentrations of 100000 nM, 10000 nM, 1000 nM, 100 nM, 10 nM, 1 nM, 0.1 nM, 0.01 nM and 0 nM, respectively. 20 μl of each inhibitor solution was adjusted to whole volume of 180 μl and then added to the microplate.
Trypsin which had been dissolved in 0.1 N HCl solution was added to the above tris buffer, just before the experiment, to make the concentration of 1 μg/ml, and 20 μl of solution obtained thus was added to the microplate containing the reaction solution at the room temperature. The amount of para-nitroaniline produced for 10 minutes after addition of enzymes was monitored by the light. The absorbance was plotted against the reaction time. Such graphs were obtained by performing the above experiment on the various concentrations of inhibitor.
Activities of Drug A and several prodrugs to trypsin were measured by determining the dissociation constant Ki, using the following formula according to the method described in Methods in Enzymology (V.80 p341–361; Biochemistry 27 p2144–2151,1988) Ki=[E]·[I]/[EI] • [E]: concentration of enzyme not bound to inhibitor • [I]: concentration of inhibitor not bound to enzyme • [EI]: concentration of binding product of enzyme and inhibitor
Such dissociation constant can be obtained by reacting with para-nitroanilide, which is chromogenic upon hydrolysis by the action of trypsin, and then measuring the extent of chromogenicity with time by spectroscopy.
The initial velocity, Vi, was obtained from the best-fit slope for the first 30 seconds after the reaction start time for each plot, and then a graph of the concentration of inhibitor versus the inverse of the initial velocity (1/Vi) was constructed. Thereafter, the linear function, which satisfies the graph, was calculated, and then Ki was calculated from the x-intercept of the above function using the enzymatic reaction formula. Km used in this calculation was obtained by changing the concentration of substrate at the constant enzyme concentration of […].

For data set [3] the following is noted: cited from earlier work.
For data set [4] the following is noted: dog, cited from earlier work.
The target in data set [5] is T1, Trypsin. Particulars: cited from earlier work.
The next data set deals with thrombin (Homo sapiens, UniProt P00734). Particulars: cited from earlier work.
The conditions of data set [6]: human subjects, oral; cited from earlier work.
For data set [7] the following is noted: rats, oral; cited from earlier work.

For the compound `N=C(N)c1ccc(CNC(=O)[C@@H]2CCCN2C(=O)[C@H](NCC(=O)O)C(c2ccccc2)c2ccccc2)s1` [Drug A, (2S)-N-{5-[amino(imino)methyl]-2-thienyl}methyl-1-{(2R)-2-[(carboxylmethyl)amino]-3,3-diphenylpropanol}-2-pyrrolidincarboxamide], the bioavailability turned out to be 43% in data set [1] (in fasting state); 20% in data set [1] (oral, after intake of Gelucire (lipid)); 13% in data set [1] (oral, after intake of egg albumin); 41% in data set [1] (oral, after intake of starch). Also, the “bioavailability after ingestion of foods” value in data set [1] (after ingestion of foods) was “decreased markedly”. Further, the Ki at Trypsin [2] amounted to 0.3 nM.

In the case of `CC(C)(C)NC(=O)[C@@H]1CN(Cc2cccnc2)CCN1C[C@@H](O)C[C@@H](Cc1ccccc1)C(=O)N[C@H]1c2ccccc2C[C@H]1O` [Indinavir, [1(1S,2R), 5(S)]-2,3,5-trideoxy-N-(2,3-dihydro-2-hydroxy-1H-inden-1-yl)-5-[2-[[(1,1-dimethylethylaminocarbonyl)-4-(3-pyridinylmethyl)-1-piperazinyl]-2-(phenylmethyl)-D-erytho-pentonamide sulfate (1:1) salt], the “absorption rate when administered together with foods” value in data set [3] is given as “absorption rate decreases”.

Take `CCOC(=O)CN[C@@H](C(=O)N1CCC[C@H]1C(=O)NCc1ccc(/C(N)=N/C(=O)OCC(C)C)s1)C(c1ccccc1)c1ccccc1` [Prodrug 1]: at Trypsin [2], the Ki came to 673 nM.

On to `CCOC(=O)CN[C@@H](C(=O)N1CCC[C@H]1C(=O)NCc1ccc(/C(N)=N/OC(C)=O)s1)C(c1ccccc1)c1ccccc1` [Prodrug 2], for which, at Trypsin [2], the Ki stood at 21300 nM.

As to `CCOC(=O)CN[C@@H](C(=O)N1CCC[C@H]1C(=O)NCc1ccc(/C(N)=N/O)s1)C(c1ccccc1)c1ccccc1` [Prodrug 3], the Ki on Trypsin [2] stood at 5490 nM.

As for `CCOC(=O)CN[C@@H](C(=O)N1CCC[C@H]1C(=O)NCc1ccc(/C(N)=N/C(=O)OCC2CCCCC2)s1)C(c1ccccc1)c1ccccc1` [Prodrug 4], the Ki at Trypsin [2] was determined as 21000 nM.

What is called IC50 is the midpoint of a concentration-inhibition curve. For `CC(=O)N[C@H](Cc1ccccc1)C(=O)N(CC(=O)N[C@@H](CCCN=C(N)N)B(O)O)C1CCCC1` [Prodrug S-18326, Ac-D-Phe-N-cyclopentylglycine-boroArg-OH], the bioavailability in data set [4] (after meals) is listed as 6%; in data set [4] (fasting state), 27%. Besides, the IC50 on Trypsin [5] is 20 nM; on thrombin it was 3.6 nM.

In the case of `NCCCC[C@H](NC(=O)C1(C(=O)NCCc2ccccc2)CCCC1)B(O)O` [Prodrug S-31922, 5-amino-1-R-(1phenethyl-carbamoyl-cyclopentanecaraboxamide) pentyl boronic acid], the bioavailability in data set [4] (after meals) was 22%; in data set [4] (fasting state) it was 36%. In addition, the IC50 on Trypsin [5] was 340 nM; at thrombin, 43 nM.

`N=C(N)NCCCC(C=O)NC(=O)C1CCCN1C(=O)C1NCCC2CCCCC21` (stereo not drawn) [R-Piq-Pro-Arg-H]: in data set [6], the “bioavailability after intake of foods” value was “decreases remarkably”. Further, in data set [7], the “bioavailability after administration of foods” value is reported as “decreases remarkably”.
